Test results taken from patent publication US9994533B2, “Method of preparing ATG's analogue, and the application of ATG and it's analogue” (Longhua Hospital Shanghai University of Traditional Chinese …, priority 2016, dated 2018).

Legend:
[1] = target: T1, Protein transport protein Sec61 subunit alpha isoform 1 (Homo sapiens, UniProt P61619); experiment: DARTS mass spectrometry of 293T lysate after ATG; type: binding; conditions: ATG 300 μM, pronase 1:1000, S61A1_HUMAN
T1 construct: endogenous in cells; host or cells: 293T
T1 sequence (P61619 whole entry, canonical isoform): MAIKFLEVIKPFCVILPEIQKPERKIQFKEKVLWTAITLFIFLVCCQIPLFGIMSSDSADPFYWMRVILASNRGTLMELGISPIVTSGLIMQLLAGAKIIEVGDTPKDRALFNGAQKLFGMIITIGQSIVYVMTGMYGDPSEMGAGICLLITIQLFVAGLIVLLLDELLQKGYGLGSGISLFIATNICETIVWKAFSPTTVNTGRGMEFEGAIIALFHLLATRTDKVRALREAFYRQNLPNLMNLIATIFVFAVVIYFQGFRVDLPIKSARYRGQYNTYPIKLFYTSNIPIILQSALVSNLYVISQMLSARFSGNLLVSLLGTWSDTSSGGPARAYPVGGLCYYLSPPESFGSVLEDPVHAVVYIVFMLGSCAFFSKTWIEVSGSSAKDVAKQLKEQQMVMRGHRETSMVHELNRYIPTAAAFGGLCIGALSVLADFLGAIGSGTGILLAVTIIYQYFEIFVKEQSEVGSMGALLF
Description: (§1) 293T cells were digested with M-PER mammalian protein extraction buffer (78501 ThermoFisher) and phosphatase inhibitor (50 mM NaF, 10 mM β-glycerophosphate, 5 mM sodium pyrophosphate, 2 mM Na3VO4); and the protein concentration is determined by Bradford method (500-0006 Bio-rad). ATG was either added or not in the cell lysate. If added, the concentration of ATG was 300 μM. The cells were incubated at room temperature for 1 h. The cells were then lysed by incubating for 20 minutes at room temperature with different concentrations of pronase at 1:1000 (10165921001, Roche). The two groups of lysates are subjected to mass spectrometry and then compared.

NOX4 mRNA [2] = experiment: NOX4 mRNA expression in human immortal podocytes under high glucose (Realtime PCR); type: cell-based; conditions: FIG. 7
Text: The detection method of Western Blot and mRNA used in the present embodiment is a detection method commonly used by person skilled in the art, and the specific detection method is described in “Molecular Biology Laboratory Manual” (People's Military Medical Press, published in 2011 Jun. 1). 3.1 Western blot and Realtime PCR confirmed that ATG in human immortal podocytes can inhibit the overexpression of NOX4 caused by high glucose stimuli, see table 5 and FIG. 6. The expression of NOX4 in the total protein, membrane protein and mitochondrial protein of human immortal podocytes was detected in the experiment.

NOX4 mRNA [3] = experiment: NOX4 mRNA expression in mouse primary endothelial cells under high glucose (Realtime PCR); type: cell-based; conditions: FIG. 9
Text: The detection method of Western Blot and mRNA used in the present embodiment is a detection method commonly used by person skilled in the art, and the specific detection method is described in “Molecular Biology Laboratory Manual” (People's Military Medical Press, published in 2011 Jun. 1). 3.2 Western blot and Realtime PCR confirmed that ATG could inhibit the overexpression of NOX4 in mouse's primary endothelial cells. The dose of 1 and 10 μmol/L corresponds to the last two bands.

NOX = experiment: NOX-related ROS induced by high glucose (NADPH oxidative activity, luminescence); type: cell-based, human
Description: The human immortal podocytes were divided into 6 groups: blank group, high glucose group (30 mM), high glucose+10 μMATG, high glucose+20 μMATG, high glucose+50 μMATG, high glucose+100 μMATG.
The effects of ATG on NOX producing ROS were observed by measuring the oxidative activity of NADPH (reduced coenzyme II): The […] were washed twice with HBSS (Hanks balanced salt solution), during which the cell culture dish was placed on ice. The cells were scraped with frozen HBSS containing protease inhibitors, then homogenated. The protein concentration was measured and calculated. 30 μg protein was added to each well and 25 μM […] (Santa Cruz) and 200 μM NADPH (Cayman Chemical) were also added. After staying in the dark room for 10 minutes at 37° C., the luminescence of each well was measured. Results: There was significant difference of ROS between high glucose group and normal group (P<0.05). The different concentration of ATG (10 μM, 20 μM, 50 μM, 100 μM) could reduce the amount of ROS induced by NOX. See Table 7 and FIG. 10 for the details.

NOX4 = NOX4 protein expression in glomeruli of STZ-eNOS−/− mice (Western Blot); type: in vivo; conditions: for NOX4/GAPDH mean: glomeruli, Western Blot
Text: The detection method of Western Blot and mRNA used in the present embodiment is a detection method commonly used by person skilled in the art, and the specific detection method is described in “Molecular Biology Laboratory Manual” (People's Military Medical Press, published in 2011 Jun. 1). 2. ATG can decrease NOX4's protein and mRNA expression in glomeruli of STZ-eNOS^−/− mice.

NOX4 gene = experiment: NOX4 mRNA expression in glomeruli of STZ-eNOS−/− mice (RT-PCR); type: in vivo; conditions: FIG. 5
Text: The detection method of Western Blot and mRNA used in the present embodiment is a detection method commonly used by person skilled in the art, and the specific detection method is described in “Molecular Biology Laboratory Manual” (People's Military Medical Press, published in 2011 Jun. 1). Further, the mRNA of the glomeruli was extracted and subjected to RT-PCR.

PP2A = PP2A activity in immortal podocytes (PP2A activity kit); type: cell-based; conditions: 1 hour
Description: Immortal podocytes were stimulated with ATG at concentrations of 0, 1.0 μm, 3.3 μm, and 10 μm, and the stimulation time was 1 hour. The activity of PP2A was detected by PP2A activity kit (R & D systems, DYC3309-2).

Tubulin beta-3 chain = target: T2, Tubulin beta-3 chain (Homo sapiens, UniProt Q13509); experiment: DARTS mass spectrometry of 293T lysate after ATG; type: binding; conditions: ATG 300 μM, pronase 1:1000, TBB3_HUMAN
T2 construct: endogenous in cells; host or cells: 293T
T2 sequence (Q13509 whole entry): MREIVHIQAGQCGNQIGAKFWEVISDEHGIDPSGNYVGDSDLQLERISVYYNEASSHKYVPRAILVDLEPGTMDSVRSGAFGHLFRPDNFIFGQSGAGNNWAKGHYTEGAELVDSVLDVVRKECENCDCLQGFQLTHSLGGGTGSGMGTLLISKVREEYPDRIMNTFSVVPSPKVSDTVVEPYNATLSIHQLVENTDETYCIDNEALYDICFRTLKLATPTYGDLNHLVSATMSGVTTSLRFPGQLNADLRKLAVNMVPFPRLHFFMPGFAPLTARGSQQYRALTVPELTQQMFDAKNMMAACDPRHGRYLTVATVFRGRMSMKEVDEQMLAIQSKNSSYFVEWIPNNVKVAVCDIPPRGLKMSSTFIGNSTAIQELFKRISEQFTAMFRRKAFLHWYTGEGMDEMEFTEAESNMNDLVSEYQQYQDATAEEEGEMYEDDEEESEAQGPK
T2 sequence (P68363 whole entry partner): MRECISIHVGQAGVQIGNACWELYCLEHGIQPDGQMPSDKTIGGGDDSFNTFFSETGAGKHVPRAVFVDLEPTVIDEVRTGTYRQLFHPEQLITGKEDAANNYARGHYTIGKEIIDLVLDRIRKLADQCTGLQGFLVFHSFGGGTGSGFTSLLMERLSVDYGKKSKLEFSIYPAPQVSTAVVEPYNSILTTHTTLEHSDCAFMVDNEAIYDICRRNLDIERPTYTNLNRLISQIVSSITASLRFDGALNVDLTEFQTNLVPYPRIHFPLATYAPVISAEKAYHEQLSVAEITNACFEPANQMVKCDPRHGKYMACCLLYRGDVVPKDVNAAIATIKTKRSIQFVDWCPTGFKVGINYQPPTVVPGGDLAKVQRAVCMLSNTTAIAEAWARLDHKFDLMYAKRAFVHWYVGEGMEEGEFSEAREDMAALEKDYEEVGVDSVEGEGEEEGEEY
Description: as §1
(§2) Furthermore, since the content of PP2A in cells is very low in the normal state, it is considered that the binding ratio of ATG and PP2A is high.

[4] = target: T3, Serine/threonine-protein phosphatase 2A catalytic subunit beta isoform (Homo sapiens, UniProt P62714); experiment: DARTS mass spectrometry of 293T lysate after ATG; type: binding
T3 construct: endogenous in cells; host or cells: 293T
T3 sequence (P62714 whole entry, canonical isoform): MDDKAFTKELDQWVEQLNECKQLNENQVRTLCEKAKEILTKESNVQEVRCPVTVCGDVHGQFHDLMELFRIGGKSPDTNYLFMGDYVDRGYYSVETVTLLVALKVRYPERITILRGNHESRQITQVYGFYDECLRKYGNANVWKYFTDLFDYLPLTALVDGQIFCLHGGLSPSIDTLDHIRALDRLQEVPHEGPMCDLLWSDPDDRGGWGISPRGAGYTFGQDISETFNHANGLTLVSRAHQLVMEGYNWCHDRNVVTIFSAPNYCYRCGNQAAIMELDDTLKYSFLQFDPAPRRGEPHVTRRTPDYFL
Description: as §1, §2

Tubulin beta-6 chain = target: T4, Tubulin beta-6 chain (Homo sapiens, UniProt Q9BUF5); experiment: DARTS mass spectrometry of 293T lysate after ATG; type: binding; conditions: ATG 300 μM, pronase 1:1000, TBB6_HUMAN
T4 construct: endogenous in cells; host or cells: 293T
T4 sequence (Q9BUF5 whole entry): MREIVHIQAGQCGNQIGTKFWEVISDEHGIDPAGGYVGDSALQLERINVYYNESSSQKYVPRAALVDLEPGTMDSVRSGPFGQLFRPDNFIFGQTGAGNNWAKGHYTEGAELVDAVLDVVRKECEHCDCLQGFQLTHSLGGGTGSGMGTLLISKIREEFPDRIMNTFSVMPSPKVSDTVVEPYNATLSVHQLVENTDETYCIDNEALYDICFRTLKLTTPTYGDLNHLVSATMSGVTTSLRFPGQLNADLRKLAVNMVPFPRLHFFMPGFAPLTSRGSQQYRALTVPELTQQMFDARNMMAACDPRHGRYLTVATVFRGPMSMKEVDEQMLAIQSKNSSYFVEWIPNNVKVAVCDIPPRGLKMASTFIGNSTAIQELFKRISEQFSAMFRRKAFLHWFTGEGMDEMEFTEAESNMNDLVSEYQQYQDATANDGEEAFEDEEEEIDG
T4 sequence (P68363 whole entry partner): as the sequence (P68363 whole entry partner) above
Description: as §1, §2

[5] = ATG 300 μM, pronase 1:1000, PP2AB_HUMAN

COc1cc(C[C@H]2C(=O)OC[C@@H]2Cc2ccc(OC)c(OC)c2)ccc1O [ATG, Arctigenin]
Ratio (ATG/DMSO) [1]: 4.7
Spectral Count (ATG) [1]: 7
overexpression of NOX4 mRNA induced by high glucose (NOX4 mRNA [2]): able to inhibit the overexpression of NOX4 mRNA
overexpression of NOX4 mRNA induced by high glucose (NOX4 mRNA [3]): inhibited the overexpression of NOX4 mRNA
NOX-related ROS (luminescence), mean (NOX; HG + 10 μM ATG): 1030
NOX-related ROS (luminescence), mean (NOX; HG + 20 μM ATG): 864
NOX-related ROS (luminescence), mean (NOX; HG + 50 μM ATG): 794
NOX-related ROS (luminescence), mean (NOX; HG + 100 μM ATG): 832
NOX4/GAPDH mean (NOX4; Normal group-ATG): 0.13
NOX4/GAPDH mean (NOX4; STZ-ATG): 0.14
NOX4's protein expression in glomerular, versus untreated group (NOX4; STZ-eNOS mice administered with ATG): significantly less than that of the untreated group
mRNA expression of NOX4 gene in glomeruli (NOX4 gene): significantly reduced
activity of PP2A, dependence on concentration (PP2A; ATG 0 to 10 μm): increased with the increase of ATG concentration
PP2A activity values, mean (PP2A; ATG 1.0 μm): 0.0268
PP2A activity values, mean (PP2A; ATG 3.3 μm): 0.0279
PP2A activity values, mean (PP2A; ATG 10 μm): 0.0484
Ratio (ATG/DMSO) (Tubulin beta-3 chain): 25.6
Spectral Count (ATG) (Tubulin beta-3 chain): 49
Ratio (ATG/DMSO) [4, 5]: 7.8
Spectral Count (ATG) [4, 5]: 14
binding ratio of ATG and PP2A ([4]; conclusion from mass spectrometry): high
Ratio (ATG/DMSO) (Tubulin beta-6 chain): 13.6
Spectral Count (ATG) (Tubulin beta-6 chain): 25
